Broadly, the IC50 is the concentration that gives 50% inhibition. A low value points to greater potency.

For 10 compounds, IC50 results are on record in patent US12037334B2, “Inhibitors of VAP-1” (ACUCELA INC., priority 2018, dated 2024).

Format in all cases: biochemical
The target of assay [1] is T1, rhMAO-A (Homo sapiens, UniProt P21397).
T1 construct: purchased Sigma
T1 sequence (P21397 1-527): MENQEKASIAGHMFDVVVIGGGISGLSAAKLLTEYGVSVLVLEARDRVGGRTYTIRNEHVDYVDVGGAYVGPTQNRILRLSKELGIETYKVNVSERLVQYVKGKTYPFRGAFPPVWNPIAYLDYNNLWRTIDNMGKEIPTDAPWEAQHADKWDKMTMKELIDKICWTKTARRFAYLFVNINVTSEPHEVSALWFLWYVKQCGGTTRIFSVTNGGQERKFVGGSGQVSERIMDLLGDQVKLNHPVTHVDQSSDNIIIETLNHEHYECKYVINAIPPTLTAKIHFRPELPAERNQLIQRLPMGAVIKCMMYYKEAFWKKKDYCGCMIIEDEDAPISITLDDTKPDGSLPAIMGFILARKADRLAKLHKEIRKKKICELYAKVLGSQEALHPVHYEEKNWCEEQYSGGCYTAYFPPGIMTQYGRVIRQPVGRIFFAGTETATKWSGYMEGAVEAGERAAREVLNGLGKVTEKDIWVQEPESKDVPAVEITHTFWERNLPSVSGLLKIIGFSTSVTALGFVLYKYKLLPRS
Kind of assay: MAO Assay (modified Promega MAO-Glo), MAO-A inhibition. Particulars: substrate 10 μM, 1 hour at room temperature. As for the experimental part:
(§1) The capability of compounds described herein to inhibit MAO was determined using a modified Promega MAO-Glo™ assay kit. The substrate ((4S)-4,5-dihydro-2-(6-hydroxybenzothiazolyl)-4-thiazolecarboxylic acid) was converted by MAO to produce methyl ester luciferin. The luciferin was then converted by luciferase to produce oxyluciferin and light. The light was measured using a luminescence setting on the plate reader. A standard curve was prepared by serially diluting luciferin in reaction buffer. The standard kit reaction buffer was used—100 mM HEPES (pH 7.5), 5% glycerol. The substrate was dispensed into the wells so that the final concentration for MAO-A inhibition assay would be 10 μM and MAO-B inhibition assay would be 1 μM. Inhibitors were diluted in DMSO to 4× and distributed to the appropriate wells. Clorgyline and Deprenyl served as positive controls. rhMAO-A and rhMAO-B were purchased from Sigma. MAO-A or MAO-B was added to the appropriate wells. The plate was incubated for 1 hour, at room temperature with gentle shaking (90 rpm). The detection agent was added at equal volume (48 μL detection agent to 48 μL reaction). The plate was incubated for 20 minutes, at room temperature with gentle shaking (90 rpm). The plate luminescence was read. Data processing was performed using Prism software.
(§2) The capability of compounds described herein to inhibit MAO was determined using a modified Promega MAO-Glo™ assay. Test compounds, substrate and enzyme were incubated per manufacturer instructions for lhour, at room temperature with gentle shaking (90 rpm) before addition of detection agent. The detection agent was added at equal volume (48 μL detection agent to 48 μL reaction). The plate was incubated for 20 minutes, at room temperature with gentle shaking (90 rpm). The plate luminescence was read. Data processing was performed using Prism software.

The target in assay [2] is T2, rhMAO-B (Homo sapiens, UniProt P27338).
T2 construct: purchased Sigma
T2 sequence (P27338 1-520): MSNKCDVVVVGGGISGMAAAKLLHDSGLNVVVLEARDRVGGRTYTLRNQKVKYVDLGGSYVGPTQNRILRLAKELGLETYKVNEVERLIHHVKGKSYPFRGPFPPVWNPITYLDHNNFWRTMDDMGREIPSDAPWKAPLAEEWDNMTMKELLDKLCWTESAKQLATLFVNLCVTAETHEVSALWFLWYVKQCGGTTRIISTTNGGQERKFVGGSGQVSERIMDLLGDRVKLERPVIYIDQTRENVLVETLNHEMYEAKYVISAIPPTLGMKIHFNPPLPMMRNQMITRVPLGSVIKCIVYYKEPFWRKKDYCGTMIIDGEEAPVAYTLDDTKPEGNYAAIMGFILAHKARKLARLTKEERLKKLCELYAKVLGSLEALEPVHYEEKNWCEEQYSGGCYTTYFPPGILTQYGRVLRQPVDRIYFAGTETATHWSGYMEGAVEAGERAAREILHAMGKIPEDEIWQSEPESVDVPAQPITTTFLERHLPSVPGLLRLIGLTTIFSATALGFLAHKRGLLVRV
Kind of assay: MAO Assay (modified Promega MAO-Glo), MAO-B inhibition. Particulars: substrate 1 μM, 1 hour at room temperature. As for the experimental part: as §1, §2

The target of assay [3] is T3, rhVAP-1 (Homo sapiens, UniProt Q16853).
T3 construct: purchased R&D Systems
T3 sequence (Q16853 1-763): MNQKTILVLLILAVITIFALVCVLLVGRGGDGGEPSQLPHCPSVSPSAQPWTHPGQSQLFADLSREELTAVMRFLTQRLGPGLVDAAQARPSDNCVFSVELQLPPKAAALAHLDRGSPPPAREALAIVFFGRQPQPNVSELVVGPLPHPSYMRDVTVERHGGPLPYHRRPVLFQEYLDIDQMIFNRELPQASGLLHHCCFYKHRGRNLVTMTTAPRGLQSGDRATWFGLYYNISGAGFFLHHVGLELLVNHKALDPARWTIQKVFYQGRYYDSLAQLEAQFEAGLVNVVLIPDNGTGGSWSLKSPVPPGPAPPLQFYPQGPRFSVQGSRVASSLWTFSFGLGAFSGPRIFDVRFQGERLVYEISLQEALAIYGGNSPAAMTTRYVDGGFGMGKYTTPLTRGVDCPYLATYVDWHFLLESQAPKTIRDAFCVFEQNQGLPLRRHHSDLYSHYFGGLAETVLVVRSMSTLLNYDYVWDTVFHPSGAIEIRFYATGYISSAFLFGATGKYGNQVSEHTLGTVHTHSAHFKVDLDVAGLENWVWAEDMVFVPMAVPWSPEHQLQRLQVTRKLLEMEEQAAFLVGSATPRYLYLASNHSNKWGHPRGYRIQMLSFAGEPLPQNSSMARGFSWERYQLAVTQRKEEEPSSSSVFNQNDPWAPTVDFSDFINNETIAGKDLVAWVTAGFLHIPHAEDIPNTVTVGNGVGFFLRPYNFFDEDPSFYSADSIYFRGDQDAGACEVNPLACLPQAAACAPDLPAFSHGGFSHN
Kind of assay: VAP-1 Assay (fluorometric, Amplex Red/HRP, benzylamine substrate). Particulars: rhVAP-1, benzylamine 50 μM, 30 minutes at 37° C., 10 mM NaHCO3 pH 7.4. As for the experimental part: The capability of compounds described herein to inhibit the enzymatic activity of vascular adhesion protein-1 (VAP-1) was determined by fluorometric assay. The assay procedure provided by R&D Systems was modified slightly for use as an inhibitor screening assay. The assay measured the H2O2 generated from the oxidative deamination of benzylamine by rhVAP-1 by converting Amplex® Red to the fluorescent product, resorufin, via horseradish peroxidase (HRP) and H2O2. Reaction buffer was 10 mM NaHCO3, pH 7.4. A standard curve was prepared by serially diluting H2O2 in reaction buffer. A 10 μM solution of resorufin was prepared in reaction buffer and was dispensed to 2 wells. These wells served as positive control for maximum fluorescence. Reaction buffer was added to the individual wells so that the final volume in each well was 100 μL. Amplex Red was diluted to 1 mM in reaction buffer. A 10U stock of HRP was prepared in reaction buffer. A reaction cocktail was prepared by mixing equal parts 1 mM Amplex Red with 10U HRP with 3 parts reaction buffers. The reaction cocktail was added to the appropriate wells, so that that final concentration in the well was 0.05 mM Amplex Red and 0.5U HRP. A 200 μM solution of benzylamine was prepared in reaction buffer. Benzylamine was added to the appropriate wells so that the final concentration was 50 μM. Inhibitors were diluted in DMSO to 20× and distributed to the appropriate wells. UP-1207 served a positive control. rhVAP-1 was purchased from R&D Systems. The concentration used for each lot was determined so that the activity was equal to the first lot. Two wells were left blank as controls. The plate was incubated for 30 minutes at 37° C., protected from light under foil. The plate was read at 530/35 emission and 590/35 excitation. Data processing was performed using Excel and Prism software.
The capability of compounds described herein to inhibit the enzymatic activity of vascular adhesion protein-1 (VAP-1) was determined by fluorometric assay. The assay procedure provided by R&D Systems was modified slightly for use as an inhibitor screening assay. The assay measured the H2O2 generated from the oxidative deamination of benzylamine by rhVAP-1 by converting Amplex® Red to the fluorescent product, resorufin, via horseradish peroxidase (HRP) and H2O2. Amplex Red, HRP, Benzylamine, inhibitors (with DMSO as vehicle, 0.5% v/v) and rhVAP-1 were added to the wells. Assay was conducted in 10 mM NaHCO3, pH 7.4. A standard curve was prepared by serially diluting H2O2 in reaction buffer. The plate was incubated for 30 minutes at 37° C., protected from light under foil. The plate was read at 530/35 emission and 590/35 excitation. Data processing was performed using Prism software.

As to `NC/C(=C/F)COc1ccc2nc(C3CCCC3)cn2c1` [Example 9, (Z)-2-(((2-cyclopentylimidazo[1,2-a]pyridin-6-yl)oxy)methyl)-3-fluoroprop-2-en-1-amine 4-methylbenzenesulfonate], the figures for the concentration for half-maximal inhibition (IC50) in assay [1] (class symbols), in assay [2] and in assay [3] were 1 to 10 µM, 1 to 10 µM and below 0.1 µM, respectively.
On to `CCCCc1cn2nc(OC/C(=C/F)CN)ccc2n1` [Example 7, (E)-2-(((2-butylimidazo[1,2-b]pyridazin-6-yl)oxy)methyl)-3-fluoroprop-2-en-1-amine 4-methylbenzenesulfonate], for which the IC50 was above 50 µM in assay [1] (cells printed as bound in μM), 0.1 to 1 µM in assay [2] and below 0.1 µM in assay [3].
In the case of `CCCCc1cn2cc(OC/C(=C/F)CN)ccc2n1` [Example 1, (E)-2-(((2-butylimidazo[1,2-a]pyridin-6-yl)oxy)methyl)-3-fluoroprop-2-en-1-amine bis(4-methylbenzenesulfonate)], the IC50 in assay [1] (class symbols) is 10 to 30 µM; in assay [2], 1 to 10 µM; in assay [3] it was below 0.1 µM.
Turning to `CCCCc1cn2cc(OC/C(=C/F)CNC(=O)OC(C)(C)C)cnc2n1` [Example 10, tert-butyl (E)-(2-(((2-butylimidazo[1,2-a]pyrimidin-6-yl)oxy)methyl)-3-fluoroallyl)carbamate], the IC50 in assay [1] (cells printed as bound in μM) is above 50 µM; in assay [2], 1 to 10 µM; in assay [3] it was below 0.1 µM.
In the case of `CCCCc1nc2cc(OC/C(=C/F)CN)ccn2n1` [Example 3, (E)-2-(((2-butyl-[1,2,4]triazolo[1,5-a]pyridin-7-yl)oxy)methyl)-3-fluoroprop-2-en-1-amine 4-methylbenzenesulfonate], the half-inhibitory concentration (IC50) in assay [1] (class symbols) was 10 to 30 µM; in assay [2], 1 to 10 µM; in assay [3], below 0.1 µM.
With `CCCCc1cn2ccc(OC/C(=C/F)CN)cc2n1` [Example 2, (E)-2-(((2-butylimidazo[1,2-a]pyridin-7-yl)oxy)methyl)-3-fluoroprop-2-en-1-amine 4-methylbenzenesulfonate], the IC50 in assay [1] (class symbols) was 10 to 30 µM; in assay [2], 10 to 30 µM; in assay [3], below 0.1 µM.
As to `CCCCc1nc2ccc(OC/C(=C/F)CN)cn2n1` [Example 4, (E)-2-(((2-butyl-[1,2,4]triazolo[1,5-a]pyridin-6-yl)oxy)methyl)-3-fluoroprop-2-en-1-amine 4-methylbenzenesulfonate], the values for the 50% inhibitory concentration (IC50) in assay [1] (class symbols), in assay [2] and in assay [3] were 10 to 30 µM, 0.1 to 1 µM and below 0.1 µM, respectively.
The corresponding values for `CCCCc1cc2cc(OC/C(=C/F)CN)ccn2n1` [Example 8, (E)-2-(((2-butylpyrazolo[1,5-a]pyridin-5-yl)oxy)methyl)-3-fluoroprop-2-en-1-amine bis(4-methylbenzenesulfonate)] are 1 to 10 µM, 0.1 to 1 µM and below 0.1 µM.
The corresponding values for `CCCCc1cc2ccc(OC/C(=C/F)CN)cn2n1` [Example 6] are 10 to 30 µM, 0.1 to 1 µM and below 0.1 µM.
On the same counts, the results for `CCCCc1cn2cc(OC/C(=C\F)CN)ccc2n1` [Example 5, (Z)-2-(((2-butylimidazo[1,2-a]pyridin-6-yl)oxy)methyl)-3-fluoroprop-2-en-1-amine 4-methylbenzenesulfonate] are 10 to 30 µM, 1 to 10 µM and below 0.1 µM.
